Data taken from US11578087B2, “Oxaborole esters and uses thereof” (priority 2016, dated 2023).

What was measured:
[1] = test system: STIB719/ILRAD560 T. vivax (drug sensitive) strain; test: Ex vivo Alamar Blue 48 h drug sensitivity assay for T. vivax; assay type: cell-based; conditions: Trypanosoma vivax, ex vivo bloodstream form from mouse, 45 hrs + 3 hrs Resazurin, 37° C., read-out: IC50: I Hypoxanthine Incorporation T. vivax 2 d
[2] = test system: IL3000 T. congolense (drug sensitive) strain; test: In vitro Alamar Blue 72 h drug sensitivity assay for T. congolense; assay type: cell-based, Trypanosoma congolense; conditions: Trypanosoma congolense, 72 h, bloodstream form, 69 h + 3 h Resazurin, 34° C., read-out: IC50: I Org. Growth T. congolense 3 d
How it was run: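 IC50 values derive from 11-point curves averaged over at least three independent runs, with fluorescence read at 536 nm excitation and 588 nm emission. Resazurin was added for a final 3 h after 69 h compound exposure of bloodstream forms (HMI medium, 20% bovine serum, 34° C, 5% CO2).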

Row | SMILES | IC50 [1] | IC50 [2]
1 | C[C@H](NC(=O)c1ccc2c(c1)B(O)OC2)C(=O)OCc1ccccc1 [Example 6-174, Benzyl (1-hydroxy-1,3-dihydrobenzo[c][1,2]oxaborole-6-carbonyl)-L-alaninate] | 50 to 2000 nM | 0.51 to 9.99 nM
2 | Cc1c(C(=O)N[C@H](C(=O)OCc2ccc(OCCCN3CCCC3)c(F)c2)C(C)C)ccc2c1B(O)OC2 [Example 6-246, 3-Fluoro-4-(3-(pyrrolidin-1-yl)propoxy)benzyl (1-hydroxy-7-methyl-1,3-dihydrobenzo[c][1,2]oxaborole-6-carbonyl)-L-valinate] | < 0.5 nM | 0.51 to 9.99 nM
